Measured values taken from patent US10422775B2, “Methods for determining relative response factors for impurity analysis using liquid chromatography with absorbance and evaporative light scattering detection” (Waters Technologies Corporation, priority 2016, dated 2019).
Values joined by “and” are separate entries in the source; they are usually repeats but may differ in a detail not shown here. Equal values may be shown once.

Key:
[1] = Example 1: forced degradation (acid hydrolysis) of glimepiride with mass balance by UPLC-PDA using RRF; type: physicochemical; design: Amount: unit not given beside the values; details: acid hydrolysis 40° C.
Description: The controls and the samples that underwent acid hydrolysis were subjected to the following conditions.
Samples were analyzed using an ultra-high performance liquid chromatography system, specifically the ACUITY UPLC H-Class system from Waters Technologies Corporation. The system included photodiode array (PDA) and ELSD detectors, a quadrapole mass detector, specifically the Qda detector from Waters Technologies Corporation, and solvent and column managers. The PDA detector was used as a detector for UV-Vis absorbance. An ultra-high performance liquid chromatography column with 1.7 μm particle size and 2.1×50 mm column dimensions, specifically the ACUITY UPLC BEH C18 column from Waters Technologies Corporation, was used. The isocratic solvent manager was used with a flow rate of 0.3 mL/min and with 0.1% formic acid in methanol as a solvent. The following settings were used for the PDA and ELSD detectors.
Isocratic and gradients methods were developed for separation of impurities; however, the isocratic method was preferred as changing the solvent composition can affect the response and the size of droplets in ELSD. Mobile phase A was 0.1% (v/v) formic acid in water. Mobile phase B was 0.1% (v/v) formic acid in acetonitrile. The column temperature was 30° C. The injection volume was 2 μL. The flow rate was 0.8 mL/min. The isocratic tests included 60% mobile phase A and 40% mobile phase B. Conditions for the gradient tests are listed below. The system has a quaternary pump with four channels; however, only the A and B channels were used, which is why the C and D values are zero in the table below.
Two degradation impurities were present, which were labeled related compound B and related compound C. To ensure adequate separation and no co-elutions, peak purity was evaluated using a mass analysis window. FIG. 9 includes PDA peak purity and Mass analysis windows in the EMPOWER 3 data analysis software used to evaluate peak purity.
RRFs were calculated for the two impurities and the reciprocal of the RRF was used as a correction factor for each impurity to determine a corrected peak area for the impurity according to the following equation.
A reference sample was run by HPLC and the total corrected PDA peak area was determined for the reference sample as described below. The correction factor of the reciprocal of the RRF for an impurity was used to determine a corrected PDA peak area for each impurity in the reference sample. The total corrected PDA peak area was the sum of the corrected PDA peak area for each impurity and the PDA peak area for the API glimepiride. This total corrected PDA peak is the value used to calculate percentage recovery. Total Corrected peak area=peak areaAPI+ΣimpuritiesCorrected peak areaimpurity (8)
The degraded samples were run by HPLC and the correction factor of the reciprocal RRF for an impurity was used to obtain a corrected PDA peak area for each impurity in each degraded sample. For each degraded sample, a total corrected PDA peak area was calculated as the sum of the corrected PDA peak areas for the impurities and the PDA peak area for the API. The percentage recovery was the total corrected PDA peak area for the degraded sample divided by the total corrected peak are for the reference sample as indicated in the equation below.
Each peak area was determined based on the average of three different injections of the sample. The tables in FIG. 11 show example calculations of mass balance based on the experimental data.
The results of the molar mass balance calculations of data from the forced degradation studies using the RRF calculated in accordance with embodiments described herein are summarized in the table below and are graphically depicted in a chart in FIG. 12.

[2] = cited from earlier work
[3] = Quantitation of by-product 4-methylcyclohexylamine by MS (SIR m/z 114.1) in acidic degradation of glimepiride; type: physicochemical; details: for 4-MeCHA / 4-MeCHA (%): by-product formed from glimepiride, acidic degradation
Description: (§1) The separation of glimepiride and related compounds B and C was achieved on a 2.1 mm×50 mm, 1.8 μm, ACQUITY UPLC HSS T3 C18 column (Waters Corporation) under isocratic conditions. The mobile phase was 0.1% (v/v) formic acid in 60:40 water/acetonitrile at a flow rate of 0.8 mL/min. The column temperature was 30° C. with mobile phase pre-heating. Injection volume was 4 μL. The PDA settings included wavelength of 228 nm, sampling rate of 20 points per second. The ELSD was set to a gas pressure of 25 psi, the nebulizer in Cooling mode, drift tube temperature of 55° C. and the gain set to 100 with a data rate of 10 points per second. The make-up pump was used for post-column addition of solvent using the ISM at a flow rate of 0.3 mL/min with 0.1% (v/v) formic acid in methanol. The mass detector (ACQUITY QDa, Waters Corp, USA) utilized positive electrospray ionization (ESI+), with a cone voltage set to 5 V. The capillary voltage was 1.4 kV and the sampling rate was 5 points per second. The mass range collected was 100-600 Da with additional single ion recording (SIR) channels were collected simultaneously for the following m/z=114.1 Da, 374.6 Da, 432.2 Da and 513.7 Da. The SIR channels were measured with a cone voltage of 5 V.
Additionally, standards of 4-Methylcylohexylamine for quantitation by mass spectrometry. Specifically, a solution of 4-methylcylcohexylamine was prepared at a concentration of 0.4 mg/mL in 25:75 water/methanol. Working standards were then prepared by diluting the stock with 25:75 water/methanol. Individual calibration standards were prepared in triplicate at 0.04% (w/w), 0.2%, 0.5%, 1%, 2% and 5%, of the sample concentration of 0.250 mg/mL. The labeled purity of 4-methylcylcohexylamine was 99.7%.
Mass detection was employed for confirmation of the degradation pathway and to reconcile mass balance differences. During the formation of both related compound B and related compound C, there is a loss of 4-methylcyclohexylamine (see FIG. 14).
Quantitation of 4-methylcyclohexylamine was achieved utilizing standards prepared from commercially available reagents. Working standards were prepared to cover the range from 0.04 to 10% (0.1 to 25 ug/mL). A single ion recording channel measuring the response for m/z=114.1 Da was used for quantitation. The working standard was present as a mixture of both the cis and trans geometric isomers. These isomers were partially separated chromatographically, therefore the sum of the isomers was used for the calibration curve. The calibration curve was quadratic and converted to a linear relationship using a log-log fit over the desired quantitation range with the parameters listed in the following table.
Using the calibration curve, 4-methylcylcohexylamine was quantified in the acidic and oxidative degradation reactions over the period of 5 days.

[4] = Example 2: forced degradation of glimepiride drug substance under oxidative conditions (AIBN), UV % impurities and mass balance; type: physicochemical; details: for % Impurities: UV
Description: (§2) The chromatographic system was an ultra-high performance liquid chromatography system, specifically, an ACQUITY UPLC H-Class system with a pump (ACQUITY Quaternary Solvent Manager (QSM)), an injector (ACQUITY Flow Through Needle (FTN) Autosampler) and a column manager (ACQUITY Column Manager). The autosampler was configured with a 50 μL extension loop. The seal wash was 90:10 water/methanol, purge solvent was methanol and the needle wash solvent was 0.1% (v/v) formic acid in 30:70 water/acetonitrile. Detection was performed with a photodiode array detector (ACQUITY UPLC PDA), an evaporative light scattering detector (ACQUITY UPLC ELSD) and a mass detector (ACQUITY QDa) (Waters, Milford, Mass.). The eluent flow path was plumbed from the column to a triple static tee (1:10 split flow) housed within a secondary pump (ACQUITY Isocratic Solvent Manager (ISM)). The tubing from the column to the tee was 22.5″ of 0.004″ ID tubing. In the first split, a portion of the flow was diverted to the PDA with 16″ of 100 μm ID fused silica tubing and then, in series, to the ELS detector with 12″ of 0.004″ ID PEEK tubing. Flow from the isocratic solvent manager was introduced into the second splitter, and the final portion of flow was diverted to the mass spectrometer via the detector probe (250 mm). The chromatography data system was Empower 3 FR3 (Waters, Milford, Mass.). The forced degradation was performed using a water bath (Isotemp) purchased from Fisher Scientific.
as §1
(§3) Over a period of 7 days, the drug substance was exposed to acidic, basic and oxidative conditions with goals of achieving approximately 10% degradation as quantified by UV. The samples were tested at 2 day intervals and analyzed by UV-ELS and MS.
For example, FIG. 19 includes chromatograms from analysis of a glimepiride drug substance after 5 days of oxidation by AIBN. […] The third peak is a product of the AIBN oxidation (m/z 177.1)-*- as evidenced by analysis of the control. One of the unknown peaks present in the AIBN control (m/z=177.2 Da) was attributed to the reagent. As observed with the acidic hydrolysis of glimepiride, the by-product (m/z=114.1 Da) was also observed. In addition, the oxidation degradation produced two isobaric peaks as determined by the QDa measurement resulting in the same m/z values.
Mass balance calculations were performed using the experimentally determined RRFs for acidic, oxidative and basic degradation conditions. […] Both the % impurity and recovery were impacted similarly, however, the implications for % impurity are greater, in that impurity reporting, identification and qualification thresholds can be impacted by as little as 0.05%. […]

[5] = Example 2: forced degradation of glimepiride drug substance under acidic hydrolysis conditions, UV % impurities and mass balance; type: physicochemical; details: for % Impurities: UV
Description: as §2, §1, §3
Confirmation of the impurities was provided by the mass spectrometry.
(§4) Mass balance calculations were performed using the experimentally determined RRFs for acidic, oxidative and basic degradation conditions. […] Both the % impurity and recovery were impacted similarly, however, the implications for % impurity are greater, in that impurity reporting, identification and qualification thresholds can be impacted by as little as 0.05%.

[6] = Example 2: forced degradation of glimepiride drug substance under basic hydrolysis conditions, UV % impurities and mass balance; type: physicochemical; details: for % Area (impurity peaks found in base hydrolysis): degradation peak in glimepiride drug substance
Description: as §2, §1, §3
Under basic hydrolysis conditions, the drug substance degraded rapidly, over a period of 1 day with >10% of degradation. […] In contrast to the previously described analyses, many smaller impurity peaks were observed.
as §4

[7] = cited from earlier work; remark: listed apart in the source

What does the source list for `CCC1=C(C)CN(C(=O)NCCc2ccc(S(=O)(=O)NC(=O)NC3CCC(C)CC3)cc2)C1=O` (stereo not drawn) [glimepiride, 1-[[4-[2[(3-ethyl-4-methyl-2-oxo-3pyrroline-1-carboxamido)ethyl]phenyl]-sulphony]-3-trans-(4-methylcyclohexyl)urea]]?
Absolute Mass Balance Deficit ([1]; 1 day): −0.6; Amount ([1]; 1 day, n = 3): 239.0; Absolute Mass Balance Deficit ([1]; 3 days): −4.3; Amount ([1]; 3 days, n = 3): 242.7; Absolute Mass Balance Deficit ([1]; 5 days): −0.7; Amount ([1]; 5 days, n = 3): 239.1; Absolute Mass Balance Deficit ([1]; 7 days): −5.7; Amount ([1]; 7 days, n = 3): 244.1; Absolute Mass Balance Deficit ([1]; T = 0): 2.3; Amount ([1]; T = 0, n = 3): 236.1; pKa value [2]: 4.32; increase of recoveries on adding 4-methylcylcohexylamine ([3]; acidic hydrolysis conditions, over the time period): 0.2-1.1%; % Impurities with RRF ([4]; 1 day): 1.45%; % Impurities ([4]; 1 day): 1.75%; % Impurities with RRF ([4]; 3 days): 4.05%; % Impurities ([4]; 3 days): 4.83%; % Impurities with RRF ([4]; 5 days): 6.28%; % Impurities ([4]; 5 days): 7.45%; % Impurities with RRF ([4]; 7 days): 8.42%; % Impurities ([4]; 7 days): 9.95%; % Impurities with RRF ([5]; 1 day): 1.95%; % Impurities ([5]; 1 day): 2.35%; % Impurities with RRF ([5]; 3 days): 5.14%; % Impurities ([5]; 3 days): 6.13%; % Impurities with RRF ([5]; 5 days): 8.15%; % Impurities ([5]; 5 days): 9.72% and 9.67%; % Impurities with RRF ([5]; 7 days): 16.69%; % Impurities ([5]; 7 days): 19.55%; % Impurities with RRF ([6]; basic hydrolysis, 1 day): 11.99%; % Impurities with RRF ([6]; basic hydrolysis, 3 days): 31.59%; % Impurities ([6]; basic hydrolysis, 3 days, UV): 33.45%; % Impurities with RRF ([6]; basic hydrolysis, 5 days): 51.92%; soluble in methanol [7]: 0.5 mg/mL

With `CCC1=C(C)CN(C(=O)NCCc2ccc(S(=O)(=O)NC(=O)OC)cc2)C1=O` [related compound C, methyl((4-(2-(3-ethyl-4-methyl-2-oxo-2,5-dihydro-1H-pyrrole-1-carboxamido)ethyl)phenyl)sulfonyl)carbamate] as the compound, how does the “% Area (impurity peaks found in base hydrolysis)” value ([6]; 1 day, UV) read?
The value was “not observed”.

For `CC1CCC(N)CC1` (centres unmarked) [4-MeCHA, 4-methylcyclohexylamine], which “4-MeCHA” value ([3]; 1 day) is on record?
The value was 0.36 µg/mL.

And the “4-MeCHA (%)” value ([3]; 1 day)?
Its value is 0.14%.

What about the “4-MeCHA” value ([3]; 3 days) of the same compound?
Its value is 0.98 µg/mL.

And the “4-MeCHA (%)” value ([3]; 3 days)?
Its value is 0.39%.

And the “4-MeCHA” value ([3]; 5 days)?
Its value is 1.74 µg/mL.

And the “4-MeCHA (%)” value ([3]; 5 days)?
The value was 0.70%.

Which “% Area (impurity peaks found in base hydrolysis)” value ([6]; 1 day, UV) does the source give for `CCC1=C(C)CN(C(=O)NCCc2ccc(S(N)(=O)=O)cc2)C1=O` [Related compound B, 3-Ethyl-4-methyl-2-oxo-N-(4-sulfamoylphenethyl)-2,5-dihydro-1H-pyrrole-1-carboxamide] here?
The value was 1.83%.
